For the assay, the target named is T1, D-amino acid oxidase (DAAO) (Mus musculus, UniProt P18894).
T1 construct: gene Dao
As to the kind of experiment: cell-based.

We go through one compound from PMC10471729, “Luvadaxistat: A Novel Potent and Selective D-Amino Acid Oxidase Inhibitor Improves Cognitive and Social Deficits in Rodent Models for Schizophrenia” (Neurochemical Research, 2023).

T1 sequence (P18894 whole entry): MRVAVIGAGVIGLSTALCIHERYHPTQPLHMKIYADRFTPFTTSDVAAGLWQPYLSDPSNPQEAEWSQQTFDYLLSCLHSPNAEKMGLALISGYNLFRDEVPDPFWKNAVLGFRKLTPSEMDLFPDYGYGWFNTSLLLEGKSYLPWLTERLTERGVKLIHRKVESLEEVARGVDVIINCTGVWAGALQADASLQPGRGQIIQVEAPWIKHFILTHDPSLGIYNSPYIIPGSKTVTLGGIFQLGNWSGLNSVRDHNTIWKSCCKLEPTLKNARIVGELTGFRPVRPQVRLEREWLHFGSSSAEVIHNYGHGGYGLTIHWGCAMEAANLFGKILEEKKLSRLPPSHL

Regarding `O=c1[nH]nc(CCc2ccc(C(F)(F)F)cc2)cc1O` [luvadaxistat], it took 5.1 nM to reach half-maximal inhibition (IC50).

The IC50 is the concentration at which inhibition is half-maximal. Low values mean higher potency, high ones lower potency.
